Where a SMILES comes first, the peptide text is derived from it. [ ]: non-standard residue; d: D form. Hyp = O=C(O)[C@@H]1C[C@@H](O)CN1
How the values were obtained:
[1] = tested on: filter-sterile supernatant of Rhodanobacter R179 (secreted peptidase(s)); assay: Peptide quantification by mass spectrometry after incubation in cell-free supernatant of Rhodanobacter R179; assay type: in vitro ADME; conditions: for peptide detected by mass spectrometry after incubation in supernatant of the R179 dssAB mutant / peptide detected by mass spectrometry after incubation in supernatant of wild-type R179: 1 µM peptide, 1 h, LC-MS MS1 peak area; for peptide detected by mass spectrometry after incubation in supernatant of the R179 dssAB mutant: filter-sterile supernatant of dssAB mutant cultivated in XVM2 (OD600 = 0.4), n = 3; for peptide detected by mass spectrometry after incubation in supernatant of wild-type R179: filter-sterile supernatant of wild-type R179 cultivated in XVM2 minimal medium (OD600 = 0.4), light chamber, n = 3 culture supernatants
Protocol: Elicitors were also supplemented into the medium prior to solidification at a final concentration of 1 µM. The flg22 ([…]) and AtPep1 ([…]) peptides were synthesized by EZbiolab. elf18^R179 (Ac-[…]) and elf18 (Ac-[…]) were synthesized by GenScript and EZbiolab, respectively. For inoculation with the bacterial supernatant, bacteria were cultivated overnight in XVM2 minimal medium (20 mM NaCl, 10 mM (NH4)2SO4, 5 mM MgSO4, 1 mM CaCl2, 0.16 mM KH2PO4, 0.32 mM K2HPO4, 0.01 mM FeSO4, 10 mM fructose, 10 mM sucrose, 0.03% Casamino acids, pH 6.7)[76] to a final concentration of OD600 = 0.4. Bacteria were pelleted by centrifugation (11,600 g, 2 min), and the supernatant was sterile-filtered using filter units with MF-Millipore membrane (0.22 µm; Millex). The supernatant was incubated in boiling water for 30 min for heat treatment. Then, 25 ml of 1× MS with 20 g l^−1 Bacto Agar was mixed with 25 ml of supernatant prior to medium solidification and poured into square petri dishes. Sterilized seeds were placed on solidified agar in square petri dishes and vertically incubated for 14 days.
Bacterial supernatants were prepared as described in ‘Agar-based cultivation of axenic plants and co-cultivation with bacteria, bacterial supernatants and elicitors’. Here, additionally, the peptides dRGF1 (DYSNPGHHP-Hyp-RHN) and PSY1 (D-Y(SO3H)-[…]-Hyp-Hyp-S) synthesized by Scilight Peptide were incubated for 1 h with 1 µM of peptides in a plant cultivation light chamber (day-light condition; see ‘Plant cultivation conditions’), and the samples were frozen at −20 °C until further processing. For the investigation of AtPep1 degradation, the AtPep1 peptide was first modified by acetylation (six to seven times). To this end, 100-µl aliquots of peptides were treated with 10 µl of NHS acetate solution (1 M NHS acetate in 50% ACN/PBS) and incubated for 30 min with shaking. The reaction was quenched by the addition of 100 µl of 100 mM Tris-HCl (pH 8.5) and incubated for 10 min. For comparison of the non-acetylated peptides with the above-described modified AtPep1 peptides, aliquots of the non-acetylated peptides were processed as described above, but without the modifying NHS reaction. To this end, 100-µl aliquots of the sample were mixed with 100 µl of PBS buffer (137 mM NaCl, 2.7 mM KCl, 10 mM Na2HPO4, 1.8 mM KH2PO4; pH 7.4). The samples were then further diluted with 100 µl of 100 mM Tris-HCl (pH 8.5) and incubated for 10 min. All samples were acidified with 5 µl of TFA and desalted using StageTips with C18 Empore disk membranes (3M)[109]. The samples were dried in a vacuum evaporator and dissolved in 10 µl of 2% ACN (0.1% TFA for analysis).
The samples were analysed using an EASY-nLC 1200 (Thermo Fisher) coupled to a QExactive Plus mass spectrometer (Thermo Fisher). Peptides were separated on 16-cm frit-less silica emitters (New Objective, 75 µm inner diameter), packed in-house with reversed-phase ReproSil-Pur C18 AQ 1.9 µm resin (Dr. Maisch). Peptides were loaded on the column and eluted for 50 min using a segmented linear gradient of 5% to 95% solvent B (0 min, 5% B; 0–5 min, 15% B; 5–35 min, 50% B; 35–45 min, 95% B; 45–50 min, 95% B) (solvent A: 0% ACN, 0.1% FA; solvent B: 80% ACN, 0.1% FA) at a flow rate of 300 nl min^−1. Mass spectra were acquired in data-dependent acquisition mode with a TOP10 method. Mass spectrometry spectra were acquired in the Orbitrap analyser with a mass range of 300–1,500 m/z at a resolution of 70,000 full width at half maximum (FWHM) and a target value of 3 × 10^6 ions. Precursors were selected with an isolation window of 1.3 m/z. Higher-energy collision dissociation (HCD) fragmentation was performed at a normalized collision energy of 25. Tandem mass spectrometry (MS/MS) spectra were acquired with a target value of 5 × 10^5 ions at a resolution of 17,500 FWHM, a maximum injection time of 85 ms and a fixed first mass of 100 m/z. […]

[2] = filter-sterile supernatant of the Rhodanobacter R179 dssAB mutant cultivated in XVM2 medium (bacterial culture: OD600 = 0.4); conditions: plant cultivation light chamber (day-light condition; 21 °C), up to 1 h
[3] = filter-sterile supernatant of wild-type Rhodanobacter R179 cultivated in XVM2 medium (bacterial culture: OD600 = 0.4); conditions: Rhodanobacter R179, plant cultivation light chamber (day-light condition; 21 °C), up to 1 h
[4] = supernatant of the R179 dssAB mutant grown in XVM2 minimal medium supplemented with 10% TSB; conditions: Rhodanobacter R179 dssAB mutant, plant cultivation light chamber (day-light condition; 21 °C), up to 1 h
[5] = supernatant of wild-type R179 grown in XVM2 medium supplemented with 10% carbon-rich medium (tryptic soy broth); conditions: Rhodanobacter R179, plant cultivation light chamber (day-light condition; 21 °C), up to 1 h
[6] = R179 dssAB mutant supernatant, XVM2 medium, incubation 1h, MS1 precursor area, replicate 1
[7] = R179 dssAB mutant supernatant, XVM2 medium, incubation 1h, MS1 precursor area, replicate 2
[8] = R179 dssAB mutant supernatant, XVM2 medium, incubation 1h, MS1 precursor area, replicate 3
[9] = R179 dssAB mutant supernatant, XVM2 medium, incubation 1h, peptide relative to axenic, replicate 1
[10] = R179 dssAB mutant supernatant, XVM2 medium, incubation 1h, peptide relative to axenic, replicate 2
[11] = R179 dssAB mutant supernatant, XVM2 medium, incubation 1h, peptide relative to axenic, replicate 3
[12] = R179 wt supernatant, XVM2 medium, incubation 1h, MS1 precursor area, replicate 1
[13] = R179 wt supernatant, XVM2 medium, incubation 1h, MS1 precursor area, replicate 2
[14] = R179 wt supernatant, XVM2 medium, incubation 1h, MS1 precursor area, replicate 3
[15] = R179 wt supernatant, XVM2 medium, incubation 1h, peptide relative to axenic, replicate 1
[16] = R179 wt supernatant, XVM2 medium, incubation 1h, peptide relative to axenic, replicate 2
[17] = R179 wt supernatant, XVM2 medium, incubation 1h, peptide relative to axenic, replicate 3
[18] = axenic XVM2 medium control, incubation 1h, MS1 precursor area, replicate 1
[19] = axenic XVM2 medium control, incubation 1h, MS1 precursor area, replicate 2
[20] = axenic XVM2 medium control, incubation 1h, MS1 precursor area, replicate 3
[21] = axenic XVM2 medium control, incubation 1h, peptide relative to axenic, replicate 1
[22] = axenic XVM2 medium control, incubation 1h, peptide relative to axenic, replicate 2
[23] = axenic XVM2 medium control, incubation 1h, peptide relative to axenic, replicate 3

Compound	peptide detected by mass spectrometry after incubation in supernatant of the R179 dssAB mutant [1]	peptide detected by mass spectrometry after incubation in supernatant of wild-type R179 [1]	Log10(total_area_MS1) [1, 6]	Log10(total_area_MS1) [1, 7]	Log10(total_area_MS1) [1, 8]	percent_rel_axenic [1, 9] [%]	percent_rel_axenic [1, 10] [%]	percent_rel_axenic [1, 11] [%]	Log10(total_area_MS1) [1, 12]	Log10(total_area_MS1) [1, 13]	Log10(total_area_MS1) [1, 14]	percent_rel_axenic [1, 15] [%]	percent_rel_axenic [1, 16] [%]	percent_rel_axenic [1, 17] [%]	Log10(total_area_MS1) [1, 18]	Log10(total_area_MS1) [1, 19]	Log10(total_area_MS1) [1, 20]	percent_rel_axenic [1, 21] [%]	percent_rel_axenic [1, 22] [%]	percent_rel_axenic [1, 23] [%]	other results
N=C(N)NCCC[C@H](NC(=O)[C@@H]1C[C@@H](O)CN1C(=O)[C@@H]1CCCN1C(=O)[C@H](Cc1c[nH]cn1)NC(=O)[C@H](Cc1c[nH]cn1)NC(=O)CNC(=O)[C@@H]1CCCN1C(=O)[C@H](CC(N)=O)NC(=O)[C@H](CO)NC(=O)[C@H](Cc1ccc(O)cc1)NC(=O)[C@@H](N)CC(=O)O)C(=O)N[C@@H](Cc1c[nH]cn1)C(=O)N[C@@H](CC(N)=O)C(=O)O [dRGF1] (H-DYSNPGHHP[Hyp]RHN-OH)	still detected	still detected	8.738	8.7982	8.898	299.876	344.476	433.442	8.685	8.632	8.682	265.464	235.074	263.706	8.337	8.259	8.171	119.158	99.6152	81.2268	Log10(total_area_MS1) ([1]; axenic XVM2_TSB, 1h, 1 µM, LC-MS [M+2H], replicate 2): 8.595; Log10(total_area_MS1) ([1]; axenic XVM2_TSB, 1h, 1 µM, LC-MS [M+2H], replicate 3): 8.5; percent_rel_axenic ([1]; axenic XVM2_TSB, 1h, 1 µM, LC-MS, relative to axenic, replicate 2): 103.573%; percent_rel_axenic ([1]; axenic XVM2_TSB, 1h, 1 µM, LC-MS, relative to axenic, replicate 3): 83.3448%; Log10(total_area_MS1) ([1]; supernatant of wt R179 grown in XVM2_TSB, 1h, 1 µM, LC-MS [M+2H], replicate 1): 8.931; Log10(total_area_MS1) ([1]; supernatant of wt R179 grown in XVM2_TSB, 1h, 1 µM, LC-MS [M+2H], replicate 2): 9.001; percent_rel_axenic ([1]; supernatant of wt R179 grown in XVM2_TSB, 1h, 1 µM, LC-MS, relative to axenic, replicate 1): 225.002%; percent_rel_axenic ([1]; supernatant of wt R179 grown in XVM2_TSB, 1h, 1 µM, LC-MS, relative to axenic, replicate 2): 263.948%
D-Y(SO3H)-GDPSANPKHDPGV-Hyp-Hyp-S [PSY1, root-growth-promoting sulfated PSY1 peptide]	still detected	still detected	9.656	9.68	9.49	16.8242	17.7896	11.4643	9.465	9.6971	9.627	10.8248	18.4872	15.7291	10.5778	10.3906	10.2645	140.453	91.2772	68.27	
DYSNPGHHP-Hyp-RHN																					not cleaved [2]: still detected after 1 h; peak area above 100% relative to mock (Fig. 4a); not cleaved [3]: still detected after 1 h; peak area above 100% relative to mock (Fig. 4a); not cleaved [4]: peak area above 100% relative to mock (Extended Data Fig. 7d); not cleaved [5]: peak area above 100% relative to mock (Extended Data Fig. 7d)

— publication PMC11928319 (Nature Plants, 2025)
